Results on three compounds are retold here after patent US20170000784A1, “Autophagy Inhibitors” (priority 2013, published 2017).

The test system of assay [1] is lysosomes (LAMP1, LysoTracker Red) in U2OS cells. The assay is described as follows: Lysosome analysis by fluorescent microscopy (LAMP1 / LysoTracker Red). The format is cell-based. The conditions noted are these: 3 μM for 3 hours; for LysoTracker Red staining: LysoTracker Red for the final hour. Here is the method: To determine deacidification of the lysosome, cells were incubated with LysoTracker Red, a dye that localizes to the lysosome based on the […] of the compartment. If the lysosome is no longer acidic, there is a loss in the amount of LysoTracker Red staining. Lysosomal inhibition was further determined by immunofluorescence of lysosome-associated membrane protein-1 (LAMP1). If the lysosome is inhibited, lysosomal turnover should decrease and an increase in the amount of LAMP1 staining would be apparent. U2OS cells were treated with Example 7 or Example 26 at 3 μM for 3 hours, supplementing LysoTracker Red for the final hour.
Using image analysis software, the mean intensities of both the LAMP1 and LysoTracker Red staining were measured and represent altered intensity level between treatments on intensity plots. Individual points were measured using a line scan on the image analysis software, which measures the intensity across the path of a line at any given point. Not only does the presence of LAMP1 positive membranes increases, but the intensity in LAMP1 staining also increases with Example 7 and Example 26 treatment. The inverse relationship in intensity holds true for LysoTracker Red staining.
U2OS cells were seeded at 5×10^4 cells per well in 5A McCoy's with 10% FBS on number 1.5 coverglass discs in 24-well tissue culture dishes. After 24 hours, cells were treated with 3 μM CQ, QN, VATG-027, or VATG-032 for three hours. An hour prior to fixation, media was supplemented with LysoTracker Red added at 100 nM (Invitrogen, L7528). Cells were washed with 1×PBS, fixed with 3.7% formaldehyde, permeabilized with 0.2% Triton-X 100, and blocked with 3% bovine serum albumin (BSA) in PBS. LAMP1 antibody (Santa Cruz, sc-18821) was added at 1:1000 for 16 hours at 4° C. followed by Alexa-Fluor-488-conjugated anti-mouse IgG (Invitrogen, A11008) 1:5000 for 1 hour at room temperature. Nuclei were stained with Hoechst 33342 (2 μg/mL). Coverglass discs were inverted onto a microscope slide using mounting gel. The microscope slides were imaged using a 60× oil-immersion objective on a Nikon Eclipse Ti fluorescent microscope. Intensity of the red and green channels were visualized using the intensity plot on the Nikon NIS Elements software (FIG. 13B). […] The RGB threshold of only the color […] indicating both LAMP1 and LysoTracker Red positivity was performed and data for analysis. The Mander's co-localization coefficient was produced from the Nikon NIS Elements software.
Next, the inventors sought to confirm the inhibition of lysosomal turnover induced by the compounds of the present invention, for example, those of Formula III, Formula III(a), Formula V, Formula V(a), Formula A, Formula A^1, Formula A^2, Formula A^3, or a pharmaceutically acceptable salt thereof, by evaluating the abundance of endogenous lysosomal protein, LAMP1. In addition, lysosome acidity was assessed by co-staining cells with LysoTracker Red, a dye that localizes to the lysosome based on the low pH. Cells were treated with 3 μM CQ, QN, Example 7, or Example 27 for 3 hours, with LysoTracker Red supplemented for the final hour. Following, cells were fixed and stained with endogenous LAMP1 antibodies and both LAMP1 and LysoTracker Red imaged. […] To quantify this phenotype, the co-localization of LAMP1 and LysoTracker Red was measured using image analysis software. […] In addition, Mander's colocalization coefficient (MCC) values were determined for each treatment (FIG. 13C). Not only does the presence of LAMP1-positive membranes increase, but the intensity of LAMP1 staining also increases with QN, Example 7, and Example 27 treatment (FIG. 13C).

Assay [2] relates to U2OS cells stably expressing tfLC3. The assay is classed as cell-based. The conditions noted are these: for autophagy inhibition at 3 μM: FIG. 10B. On the procedure: U2OS cells stably expressing tfLC3 were seeded at 50,000 cells per well in 5A McCoy's with 10% FBS on number 1.5 coverglass in 24-well tissue culture dishes. After 24 hours, cells were treated with known autophagy controls rapamycin [100 nM] (Millipore, 553210-10 mg), bafilomycin A1 [100 nM] (AG Scientific, B-1183), AZD-8055 [100 nM](Selleck Chemicals, S1555), and CQ [50 μM] as well as autophagy inhibitors (CQ, QN, Example 7, and Example 27) at doses of 0.1 μM, 0.25 μM, 0.5 μM, 1 μM, 5 μM, 15 μM, 25 μM, and 50 μM for three hours. Cells were washed with 1×PBS, fixed with 3.7% formaldehyde, and nuclei were stained with Hoechst 33342 (2 μg/mL). Coverglass was inverted onto microscope slides using mounting gel. Cells were imaged using a 60× oil-immersion objective on a Nikon Eclipse Ti fluorescent microscope and 10 images at each dose were taken for quantification. Image processing and quantification were completed with the Nikon NIS Elements software. To quantify, images were deconvolved using a 2D blind deconvolution function with one iteration and settings of normal cell thickness and normal noise level. Regions of interest (ROI) were drawn around the edges of each cell. Intensity thresholds were set to include all pixels equal to or greater than the intensity above the mean background fluorescence using the separation feature and restrictions set for puncta size (FIG. 9). Objects within the threshold for each ROI were quantified using an automated object count function and exported for analysis. Although other parameters were also collected, the mean intensity of the objects was averaged between the 10 images of each dose, or approximately 50 cells (FIGS. 9B and 9C). Representative images were chosen for each dose and the lookup table (LUT) brightness' were set based on the mean intensity of the DMSO control (FIGS. 8A and 10A). The mean intensity of each image was divided by the mean intensity of the DMSO control to control for brightness and the LUTs were adjusted by the percent difference to avoid background and for consistent visualization. All other settings (gain, exposure time, and lamp strength) were kept the same across all conditions. […] Mean intensity was further chosen for quantification as it accurately represents both the increase in puncta number and area when the accumulation of autophagosomes partially fuse (FIG. 9C, 9D). Quantification of the red channel (RFP-LC3 puncta) was performed to determine the total autophagic vesicle population (both autophagosomes and autolysosomes).
Autophagy inhibition can be measured by fluorescent microscopy using cells expressing a tandem fluorescent (RFP-GFP) labeled LC3 sensor (tfLC3). Upon autophagosome nucleation, LC3 is localized to the autophagic membrane and the overlapping GFP and RFP fluorescence appears as yellow puncta. After the autophagosome matures, it fuses with the lysosome, forming an autolysosome. The GFP in this LC3 sensor is pH labile and becomes quenched by the acidic environment of the autolysosome. However, the RFP remains stable; therefore, autolysosomes are indicated by red puncta. Accordingly, when autophagy is inhibited at the final stage (completion), the abundance of yellow puncta is expected to increase proportionally to the level of autophagy inhibition.
Cells were then fixed and imaged by fluorescent microscopy.

Entries after “also recorded” stand apart in the source; their conditions may differ. Where two headings read alike, the source gives them in different places.

For the compound `CCN(CC)CCCC(C)Nc1c2ccc(Cl)cc2nc2ccc(OC)cc12` (stereo not drawn) [Quinacrine, quinacrine, reference compound], in assay [1], the LAMP1 staining entry is “substantial increases” and the “LysoTracker Red staining” value is reported as “essentially eliminated”. In addition, in assay [2], the “Potency (EC/ECCQ)” value was ~60 and the “autophagy inhibition at 3 μM” value was “inhibit autophagy”. In assay [2] (U2OS-tfLC3, ten-point dose response, FIG. 8B), the “concentration giving a significant increase in mean intensity of autophagic puncta” value was found to be 0.25 µM. In addition, in assay [2] (concentration with statistically significant increase in puncta number over vehicle control, three hours), the “Effective Concentration (EC)” value turned out to be 0.25 µM.
For the compound `CN1CCN(CCNc2c3c(nc4cc(Cl)ccc24)CCCC3)CC1` [Example 27, 6-Chloro-N-(2-(4-methylpiperazin-1-yl)ethyl)-1,2,3,4-tetrahydroacridin-9-amine], in assay [1], the LAMP1 staining result is on record as “substantial increases” and the “LysoTracker Red staining” value is reported as “essentially ablated; also recorded: essentially eliminated”. Moreover, in assay [2], the “autophagy inhibition at 3 μM” value is “inhibit autophagy”. Further, the “Potency (EC/ECCQ)” value in assay [2] (relative potency score versus chloroquine, greater than one = more potent than CQ) is listed as 3.
As for `COc1ccc2nc3cc(Cl)ccc3c(NCCCCN3CCN(C)CC3)c2c1` [Example 7, 6-Chloro-2-methoxy-N-(4-(4-methylpiperazin-1-yl)butyl)acridin-9-amine], in assay [1], the LAMP1 staining entry is “substantial increases” and the “LysoTracker Red staining” value was “essentially ablated; also recorded: less intense; also recorded: essentially eliminated”. In addition, in assay [2], the “Potency (EC/ECCQ)” value is given as 150, the “fold more potent at autophagy inhibition than QN” value was 2 and the “autophagy inhibition at 3 μM” value is “inhibit autophagy”.
